In ChEMBL document CHEMBL1201862, “PubChem BioAssay data set” (2004):
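Grown in 96-well plates, cells were treated for 48 hours with each compound at five concentrations. Insufficient inhibition: endpoint recorded as highest concentration tested. At the GI50, growth is halved.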 Activity calls are given as the source filed them. Rule as the data show it: active = GI50 up to about 1.1 µM and inactive = higher.

Columns and labels:
Assay in all cases: NCI anticancer screen, dose series, 48 h
[1] = test system: A549
[2] = test system: TK-10
[3] = test system: NCI-H226
[4] = test system: 786-0
[5] = test system: UACC-257
[6] = test system: LXFL 529
[7] = test system: OVCAR-8
[8] = test system: SF-295
[9] = test system: HOP-62
[10] = test system: KM12
[11] = test system: UO-31
[12] = test system: NCI/ADR-RES
[13] = test system: EKVX
[14] = test system: CAKI-1
[15] = test system: MDA-N
[16] = test system: BT-549
[17] = test system: MCF7
[18] = test system: T47D
[19] = test system: LOX IMVI
[20] = test system: HL-60

Measured: GI50

O=[N+]([O-])c1cccc(C2=NOC3C4CCC(C4)C23)c1 (stereo unspecified)
inactive: [1] > 100 µM | [2] > 100 µM | [3] > 100 µM | [4] > 100 µM | [5] > 100 µM | [6] > 100 µM | [7] > 100 µM | [8] > 100 µM | [9] > 100 µM | [10] > 100 µM | [11] > 100 µM

CCCCCCSC[C@H](OC(C)=O)[C@@H](OC(C)=O)[C@@H](OC(C)=O)[C@@H](COC(C)=O)OC(C)=O
inactive: [1] 71.1 µM | [12] > 100 µM | [13] > 100 µM | [2] > 100 µM | [3] > 100 µM | [4] > 100 µM | [5] > 100 µM | [14] > 100 µM | [15] > 100 µM | [16] > 100 µM | [7] > 100 µM | [8] > 100 µM | [17] 85.5 µM | [18] 38.6 µM | [9] > 100 µM | [19] > 100 µM | [10] 41.9 µM | [20] 33.6 µM | [11] > 100 µM

CC(=C(C(N)=O)C(N)=O)C1C=C(c2cccs2)CC(c2ccc(Cl)cc2)=C1O (stereo unspecified)
inactive: [1] 88.7 µM | [12] 44.9 µM | [13] > 100 µM | [2] 45.3 µM | [3] 73.6 µM | [4] 36.7 µM | [5] 14.5 µM | [14] 44.3 µM | [15] 35.1 µM | [16] 16.1 µM | [7] 73.6 µM | [8] 82.8 µM | [17] 8.95 µM | [18] 9.84 µM | [9] > 100 µM | [19] 19.8 µM | [10] 34.7 µM | [20] 9.59 µM | [11] 16.4 µM

COC(=O)NC1=NNC(=O)c2ccccc2N1
inactive: [1] > 100 µM | [12] > 100 µM | [13] > 100 µM | [2] > 100 µM | [3] > 100 µM | [4] > 100 µM | [5] > 100 µM | [14] > 100 µM | [15] > 100 µM | [16] > 100 µM | [7] > 100 µM | [8] > 100 µM | [17] > 100 µM | [18] > 100 µM | [9] > 100 µM | [19] > 100 µM | [10] > 100 µM | [20] > 100 µM | [11] > 100 µM

CCC1c2[nH]c3ccccc3c2C[C@H]2C(=O)NC(CCCCNC(=O)OC(C)(C)C)C(=O)N12 (stereo partly specified)
inactive: [1] 34.3 µM | [12] 25.7 µM | [13] 42 µM | [2] 33.6 µM | [3] > 100 µM | [4] 22.2 µM | [5] 21.2 µM | [14] 25.9 µM | [15] 20.7 µM | [16] 24.1 µM | [7] 33 µM | [8] 22.9 µM | [17] 35.8 µM | [18] 31 µM | [9] 35.4 µM | [19] 24.8 µM | [10] 18.5 µM | [20] 31.8 µM | [11] 34.6 µM

COc1cc(C)c2c(c1C=O)Oc1c(c(C)c(O)c3c1C(O)OC3=O)OC2=O (stereo unspecified) [STICTIC ACID]
inactive: [1] > 100 µM | [12] 37.2 µM | [13] 32.6 µM | [2] > 100 µM | [3] 37.6 µM | [4] 73.3 µM | [5] 47.9 µM | [14] > 100 µM | [15] 17.5 µM | [16] 35.2 µM | [7] 31.4 µM | [8] 49.2 µM | [17] 22.4 µM | [18] 17.6 µM | [9] 70.1 µM | [19] 28.4 µM | [10] 19.6 µM | [20] 23.3 µM | [11] 29.1 µM

COc1ccc(Nc2[nH]c(C(C)=O)c(N)c2C(=S)Nc2ccccc2)cc1
inactive: [1] 41.9 µM | [12] > 100 µM | [13] 99.8 µM | [2] 68.9 µM | [3] 36.1 µM | [4] 42.5 µM | [5] 52.2 µM | [14] 87.3 µM | [15] 76.4 µM | [16] 78 µM | [7] 60.8 µM | [8] 61.5 µM | [17] 23.6 µM | [18] 56.8 µM | [9] > 100 µM | [19] 32.1 µM | [10] 37.5 µM | [20] 45.1 µM | [11] 51.6 µM

CC(=O)NNc1nc(C)c(C(/C=C/c2ccc(NC(C)=O)cc2)=N/NS(=O)(=O)c2ccc(C)cc2)s1
inactive: [1] > 100 µM | [12] > 100 µM | [13] > 100 µM | [2] > 100 µM | [3] > 100 µM | [4] > 100 µM | [5] > 100 µM | [14] > 100 µM | [15] > 100 µM | [16] > 100 µM | [7] > 100 µM | [8] 27.9 µM | [17] > 100 µM | [18] > 100 µM | [9] > 100 µM | [19] > 100 µM | [10] > 100 µM | [20] > 100 µM | [11] > 100 µM

COC(=O)c1c(C)nc(C)c(NO)c1-c1ccccc1C(F)(F)F
inactive: [1] > 100 µM | [12] 18.2 µM | [13] 83 µM | [2] 17.1 µM | [3] 20.2 µM | [4] 16.4 µM | [5] 22 µM | [14] 16.2 µM | [15] 16.8 µM | [16] 16.7 µM | [7] 18.5 µM | [8] > 100 µM | [17] 19.2 µM | [18] 28 µM | [9] > 100 µM | [19] 38.3 µM | [10] 34.7 µM | [20] 5.41 µM | [11] 29.5 µM

CCCCc1ccc(Nc2nc(Cl)c3[nH]cnc3n2)cc1
inactive: [1] 33.5 µM | [12] 19.3 µM | [13] 33.8 µM | [2] 22.8 µM | [3] 39.6 µM | [4] 15.7 µM | [5] 16.2 µM | [14] 27.2 µM | [15] 21.9 µM | [16] 28.1 µM | [7] 18.4 µM | [8] 17.7 µM | [17] 20.4 µM | [18] 11.2 µM | [9] 14 µM | [19] 13.7 µM | [10] 17.1 µM | [20] 42.1 µM | [11] 23.8 µM

COC(=O)c1cc(C#N)[nH]c1-c1cc(Br)cs1
inactive: [1] 10.5 µM | [12] 13.4 µM | [13] 16.1 µM | [2] 20.3 µM | [3] 10.9 µM | [4] 19.1 µM | [5] 11.4 µM | [14] 17.5 µM | [15] 15.4 µM | [16] 12.9 µM | [7] 14.7 µM | [8] 10 µM | [17] 7.24 µM | [18] 2.13 µM | [9] 11.1 µM | [19] 11.3 µM | [10] 20.7 µM | [20] 13.2 µM | [11] 10 µM
